A short description of this data set: gradient 5% acetonitrile 3 min, to 50% in 2 min, to 85% in 15 min, held 3 min, 100 µL/min. The following applies: column: Zorbax Extend-C18 2.1 x 50 mm; eluents: water / acetonitrile, 0.1% formic acid. In outline:
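A Zorbax Extend-C18 column (2.1 × 50 mm, 1.8 μm) run at 100 μL/min with water and acetonitrile, both containing 0.1% formic acid, separated mixtures of ~100 pure standards. The HPLC was coupled to a quadrupole time-of-flight mass spectrometer operated in positive and negative ionization mode, with dead and dwell volumes of 40 μL and 900 μL. Each retention time was taken from a computationally picked adduct peak that was then manually inspected.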
The compound `COc1ccccc1Cc1noc(C2CN(C(=O)c3cncc(Br)c3)C2)n1` returned an RP-LC retention time of 777 s.

Compound `C/C=C/c1ccc(OCC(O)CN2CCN(C)CC2)c(OC)c1` (centres undefined) had an RP-LC retention time of 560 s.

Compound `O=C(NCCCOc1cccc2cccnc12)c1c(F)cccc1F` registered an RP-LC retention time of 574 s.

In turn, `Cn1c(=O)c(-c2ccc(C(=O)NCc3ccc4c(c3)OCO4)cc2)nc2cccnc21` had an RP-LC retention time of 872 s.

Turning to `CC(=O)c1ccc(Nc2c(C(=O)OC(C)C)cnc3nc(C)ccc23)cc1`, the RP-LC retention time amounted to 616 s.

The compound `COC(=O)Nc1nc2ccc(S(=O)c3ccccc3)cc2[nH]1` (centres undefined) returned an RP-LC retention time of 658 s.

In turn, `COc1cccc2cc(C(=O)NC3C=CS(=O)(=O)C3)oc12` (centres undefined) returned an RP-LC retention time of 652 s.

`COc1ccc(CNC(=O)Nc2cc3c(cc2Oc2ccccc2)n(C)c(=O)n3C)cc1` had an RP-LC retention time of 840 s.

With `Cc1ccc(NC(=O)N2CCc3nc[nH]c3C2)cc1Cl`, the RP-LC retention time was determined as 612 s.

The compound `CC(C)S(=O)(=O)c1ccc(Cc2nnc(NC(=O)C3=COCCO3)o2)cc1` showed an RP-LC retention time of 616 s.

Compound `Cc1nc(-c2ccccc2)sc1C(=O)NCCNC(=O)c1ccc(NC(=O)C2CC2)cc1` displayed an RP-LC retention time of 705 s.

`Cc1c(C(=O)NCCOc2cccc3cccnc23)cnn1-c1ccccc1` registered an RP-LC retention time of 593 s.

In turn, `O=C(NCCc1ccccc1)NCCc1ccsc1` returned an RP-LC retention time of 764 s.

Take `CCOC(=O)c1c(S(=O)(=O)N2CCC(C(=O)Nc3nccs3)CC2)c(C)n(C)c1C`: the RP-LC retention time worked out at 740 s.

`CC(C)n1c(=O)c2ccccc2n(Cc2nc(-c3cccc(C(F)(F)F)c3)no2)c1=O` displayed an RP-LC retention time of 1230 s.

Take `NC(=O)C1CCN(C(=O)CN2c3ccccc3NC3=C(C(=O)CCC3)C2c2cccs2)CC1` (centres undefined): the RP-LC retention time stood at 630 s.

`Cn1nccc1C(=O)N1CC2CN(S(=O)(=O)c3cccc(F)c3)CC(C1)O2` yielded an RP-LC retention time of 693 s.

Compound `N#Cc1cccc(-c2nc(-c3cccc(-c4ccn[nH]4)c3)no2)c1` returned an RP-LC retention time of 920 s.

Regarding `Cc1cc(NC(=O)C2CCN(C(=O)c3cnn(-c4ccccc4)c3C)CC2)no1`, the RP-LC retention time came out at 657 s.

For `CCOC(=O)CNC(=O)NCc1cccn1Cc1cc(C)ccc1C`, the RP-LC retention time came to 888 s.

For `CCOC(=O)CNC(=O)Nc1ccc(-c2nc(-c3cc(C)ccc3C)co2)cc1`, the RP-LC retention time was found to be 1040 s.

`CCC(=O)N1CCc2c(C(=O)NC3CCCCCC3)cccc21` had an RP-LC retention time of 887 s.

The compound `O=C1NCCOCCN(C(=O)Nc2ccccc2)[C@@H]2CCCC[C@H]12` showed an RP-LC retention time of 741 s.

In turn, `O=C(NCCOc1ccc(F)cc1)C(c1ccccc1)n1cccc1` (centres undefined) displayed an RP-LC retention time of 927 s.

On to `Cc1nnc2ccc(S(=O)(=O)N(Cc3ccc(F)cc3)c3ccc(F)cc3)cn12`, for which the RP-LC retention time was determined as 892 s.

Regarding `Cc1ccc(S(=O)(=O)Nc2ccc3nc(N4CCN(CCC#N)CC4)cc(C(=O)O)c3c2)cc1C`, the RP-LC retention time was 614 s.

For `COc1ccc(-c2nsc(SCC(=O)N3CCCCCC3)n2)cc1`, the RP-LC retention time is 846 s.

Compound `O=C(NCC1CCCO1)C1COC2(CCN(C(=O)C3CC3)CC2)N1C(=O)c1ccccc1` (centres undefined) displayed an RP-LC retention time of 608 s.

For `Cn1nc(C(=O)N2CCCC(C(=O)Nc3ccccc3)C2)c2c1CCN(C(=O)c1ccco1)C2` (centres undefined), the RP-LC retention time was 717 s.

In the case of `CCOc1ccccc1-c1noc(Cn2c(=O)n(-c3cccc(C)c3)c(=O)c3sccc32)n1`, the RP-LC retention time amounted to 1010 s.

`CCn1ccc(C(=O)NCC23CCC=C2N(CC2CC2)C(=O)CC3)n1` (centres undefined) gave an RP-LC retention time of 770 s.

Take `CC(NC(=O)c1cc2n(n1)CC(C)(C(=O)NC1CCCCC1)N(C)C2=O)c1ccccc1` (centres undefined): the RP-LC retention time was determined as 800 s.

Turning to `COc1ccc(Cl)cc1NC(=O)N1CCC(COCc2ccccc2)CC1`, the RP-LC retention time amounted to 1120 s.

As to `CCS(=O)(=O)N1CC(c2nc(-c3ccc(F)cc3)no2)C2(CCOCC2)C1` (centres undefined), the RP-LC retention time was determined as 877 s.

As for `CCCNC(=O)c1ccc(-c2ccc3c(c2)CCN3C(=O)CC)cc1`, the RP-LC retention time was 822 s.

`Cn1c(N2CCCC(C(=O)NCc3ccc(Cl)cc3)C2)cc(=O)n(C)c1=O` (centres undefined) returned an RP-LC retention time of 710 s.

As for `COc1ccc(C)cc1N(C)C(=O)C1CCCN(c2ncnc3c2nc2n3CCCCC2)C1` (centres undefined), the RP-LC retention time was determined as 869 s.

`COc1ccc(OCc2nc(-c3cccc(-c4csc(C5CC5)n4)c3)no2)cc1` showed an RP-LC retention time of 1300 s.

Compound `Cc1nnc(-c2ccc3ccn(CC(=O)NCCc4ccc(Cl)cc4)c3c2)o1` returned an RP-LC retention time of 824 s.

Take `O=C(c1ccoc1)N1CCCC(c2nnc3n2CCN(C(=O)C2CC2)C3)C1` (centres undefined): the RP-LC retention time turned out to be 591 s.

`CC(C)C(=O)N1CCCCCCN(C)C(=O)[C@@H]2CCC[C@@H]21` came in with an RP-LC retention time of 760 s.

`O=C(CC1CCN(C(=O)c2ccc3oc(-c4ccccc4)nc3c2)CC1)N1CCOCC1` showed an RP-LC retention time of 682 s.

`CCOc1ccc(-c2cc(SCc3cccnc3)ncn2)cc1`: the RP-LC retention time turned out to be 690 s.

Regarding `COc1ccc(C(C)NC(=O)c2cnn3c(-c4ccc5c(c4)OCO5)ccnc23)cc1OC` (centres undefined), the RP-LC retention time worked out at 875 s.

In the case of `CCNC(=O)c1cc(N2CCOCC2)nc2ccccc12`, the RP-LC retention time turned out to be 563 s.

As for `O=C(NCc1nc(-c2ccc(N3CCCC3)cc2)no1)c1ccco1`, the RP-LC retention time stood at 889 s.

Turning to `CC(C)Oc1ccc(-c2noc(-c3nn(-c4cccc(F)c4)ccc3=O)n2)cc1`, the RP-LC retention time is 1010 s.

As for `CCc1nc2cc(N3CCC(C(=O)Nc4ccc(OC)cc4)CC3)cnc2nc1CC`, the RP-LC retention time was determined as 827 s.

Take `CNC(=O)N1CCCN(C2=NS(=O)(=O)C(c3ccccc3)=C2C)CC1`: the RP-LC retention time is 594 s.

Consider `O=C(CCn1c(CO)nc2ccccc21)c1ccccc1`, for which the RP-LC retention time turned out to be 578 s.

For the compound `Cc1ccc2c(Nc3cccc(Cl)c3)c(C(=O)N3CCSCC3)cnc2n1`, the RP-LC retention time amounted to 654 s.

As for `Cc1ccc(-c2noc(Cc3nnc(-c4ccc(C)c(F)c4)o3)n2)cc1C`, the RP-LC retention time was 1210 s.

For the compound `COc1cc(Nc2c(C(=O)N3CCCC(C)C3)cnc3nc(C)ccc23)cc(OC)c1` (centres undefined), the RP-LC retention time worked out at 657 s.

For `COc1ccccc1C1=NN(C(=O)c2ccccc2C)C(c2ccco2)C1` (centres undefined), the RP-LC retention time came to 976 s.

Compound `CCCn1nccc1-c1csc(S(=O)(=O)NC(C)(C)CC)c1` returned an RP-LC retention time of 975 s.

`CCN(CC)C(=O)Cn1c(C2CC(=O)N(C3CCCC3)C2)nc2ccccc21` (centres undefined) displayed an RP-LC retention time of 657 s.

Consider `COCCN(CC(=O)N1CCc2sccc2C1COc1cccc(F)c1)C(=O)C1CCCC1` (centres undefined), for which the RP-LC retention time stood at 999 s.

On to `CCCNc1cc(N2CCC(CCC(=O)NCc3cccnc3)CC2)ncn1`, for which the RP-LC retention time turned out to be 556 s.

Consider `COc1ccc(C(=O)NC2(c3nc(-c4ccncc4)no3)CCCCC2)cc1OC`, for which the RP-LC retention time amounted to 827 s.

Consider `CCC(=O)NCc1nc2c(n1CC)CN(C(=O)c1ccccc1C(F)(F)F)CC2`, for which the RP-LC retention time worked out at 594 s.

`CSc1ncccc1C(=O)N1CCCn2nc(-c3ccncc3)cc2C1` displayed an RP-LC retention time of 586 s.

The compound `CCCC(=O)NCCn1c(=O)n(Cc2ccc(C)cc2)c2cccnc21` yielded an RP-LC retention time of 759 s.

The compound `CCOc1ccccc1NC(=O)c1cn(-c2cc(N3CCC(C)CC3)ncn2)cn1` gave an RP-LC retention time of 1300 s.

`Cc1ccc(-n2cc3c(N4CCCC(C(=O)NCc5cc(F)cc(F)c5)C4)ncnc3n2)cc1` (centres undefined) returned an RP-LC retention time of 740 s.

With `CCC(Sc1nnc2n1CCN2c1ccc(OC)cc1)C(=O)OC` (centres undefined), the RP-LC retention time turned out to be 735 s.

Compound `CC(C)CCNC(=O)Cn1cccc(-c2nc(-c3ccc(F)cc3)no2)c1=O` displayed an RP-LC retention time of 860 s.

With `COCCNC(=O)c1nnc(-c2ccc(S(=O)(=O)N(C)C)cc2)o1`, the RP-LC retention time turned out to be 687 s.

With `Cc1nn(C)cc1CN1C[C@@H]2C(=O)N(Cc3ccc4c(c3)OCO4)C(=O)[C@@H]2C1`, the RP-LC retention time worked out at 601 s.

The compound `CCCc1cc(N2CCN(C(=O)c3ccccc3)CC2)nc2nncn12` showed an RP-LC retention time of 608 s.

`CSc1cccc(NC(=O)N2CC=C(c3cn(C)c4ncccc34)CC2)c1` returned an RP-LC retention time of 873 s.

In turn, `CCC(C)(C)NS(=O)(=O)c1cc(-c2nc(C)c(C(=O)N3CCCC3)s2)cs1` displayed an RP-LC retention time of 863 s.

For `O=C(Cc1ccc(Br)cc1)N1CCN(C(=O)c2cc(-c3ccncc3)n[nH]2)CC1`, the RP-LC retention time came out at 622 s.

On to `O=S(=O)(c1ccccc1)N1CC(c2nc(-c3ccncc3)no2)C1`, for which the RP-LC retention time was found to be 688 s.

On to `CCn1cc(CN2CCC(C(=O)NC(C)c3ccccc3)CC2)c2cc(Cl)ccc21` (centres undefined), for which the RP-LC retention time was found to be 753 s.

The compound `COc1ccc(-c2nn3c(-c4ccc5ccccc5n4)nnc3s2)cc1` came in with an RP-LC retention time of 975 s.

In turn, `Cc1ccc(-c2cn3c(CC(=O)NCc4ccc5c(c4)OCO5)csc3n2)cc1C` came in with an RP-LC retention time of 794 s.

`CS(=O)(=O)Nc1ccc(C2(C(=O)NCc3ccc(F)cc3Cl)CCCCC2)cc1`: the RP-LC retention time turned out to be 979 s.

Turning to `COCc1cc(=O)n(CC(=O)Nc2ccc(Cl)cc2)c(N2CCOCC2)n1`, the RP-LC retention time turned out to be 865 s.

As to `COc1ccc(C)cc1NC(=O)C1CCN(c2cc(N3CCSCC3)ncn2)CC1`, the RP-LC retention time came out at 717 s.

These data come from the METLIN SMRT retention time set (Domingo-Almenara et al. 2019).
